From US8846704B2, “Thiopyrimidine-based compounds and uses thereof” (YM Biosciences Austraila Pty Ltd, priority 2007, dated 2014)

Key:
BaF3 wild-type cells = assay: Cellular screening, BaF3 wild-type cells, Alamar Blue; format: cell-based; settings: Mus musculus, 40 hr, read-out: BAF3wt IC50_nM
Procedure, shortened: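 Compounds, screened from dilution plates at 20 μM, were added as 10× final stocks to cells grown in DMEM/10% FCS/10% WEHI 3B conditioned medium. Cells were seeded at 1.1× final (50,000–200,000 cells/mL) and incubated 40 hr at 37° C, 5% CO2. Viability was read at 544 nm after a further 4–6 hours with Alamar Blue.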

[1] = molecular target: T1, BaF3 TELJAK2 cells (BafT_J2) (Homo sapiens, UniProt O60674); assay: Cellular screening, BaF3 TEL:JAK2 cells, Alamar Blue; format: cell-based; settings: 40 hr, read-out: BafT_J2 IC50_nM
T1 construct: fused on or other part: TEL (ETV6) N-terminal part, coding nucleotides 1-487, serves as the oligomerising partner; It is fused through a Sal I site to the JAK2 kinase domain and expressed from pTRE2 in BaF3 cells bearing pTET-off; P41212 (Transcription factor ETV6)
Procedure, shortened: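 Tet-off BaF3 cells carrying a TEL (nt 1-487)–JAK2 kinase-domain fusion, grown factor-independently in DMEM with 10% Tet-approved FBS without WEHI 3B medium. Compounds were diluted to 20 μM in screening plates, and cells (50,000–200,000 cell/mL at 1.1×) were incubated 40 hr at 37 °C, 5% CO2. Alamar Blue was then added for 4-6 hours; read at 544 nm.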

CTLL2 = assay: Cellular screening, CTLL2 cells, Alamar Blue; format: cell-based; settings: Mus musculus, CTLL-2, read-out: CTLL2 IC50_nM
Procedure, shortened: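 Viability is read with Alamar Blue at 544 nm, the dye added for the final 4-6 hours. Compounds were incubated for 40 hr with CTLL2 cells taken from late-log-phase culture, at 37° C in 5% CO2.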

human JAK2 = molecular target: T2, human JAK2 (Homo sapiens, UniProt O60674); assay: Alphascreen tyrosine kinase enzyme assay, JAK2 kinase domain; format: biochemical; settings: read-out: JAK2 IC50_nM
T2 construct: The kinase domain of human JAK2 was amplified; GST (N); made in house; host or cells: Sf9 insect cells (baculovirus)
Procedure, shortened: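 JAK2 kinase domain expressed in baculovirus/Sf9 and glutathione-affinity purified. Compounds (final […]) pre-incubated 20 min with enzyme in 10 mM HEPES pH 7.5, MgCl2, NaCl, vanadate, 0.1% Tween 20.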

human JAK3 = molecular target: T3, human JAK3 (Homo sapiens, UniProt P52333); assay: Alphascreen tyrosine kinase enzyme assay, JAK3 kinase domain; format: biochemical; settings: read-out: JAK3 IC50_nM
T3 construct: The kinase domain of human JAK3 was amplified; GST (N); made in house; host or cells: Sf9 insect cells (baculovirus)
Procedure, shortened: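 GST-affinity-purified human JAK3 kinase domain (baculovirus/Sf9) was pre-incubated 20 min with compound ([…]) in HEPES pH 7.5 buffer with MgCl2, vanadate and Tween 20. Biotinylated peptide substrate ([…]) and ATP were then added; phosphotyrosine was detected by AlphaScreen PY100 acceptor and streptavidin donor beads after 2–3 h.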

T2 sequence (O60674 849-1124 limits assumed): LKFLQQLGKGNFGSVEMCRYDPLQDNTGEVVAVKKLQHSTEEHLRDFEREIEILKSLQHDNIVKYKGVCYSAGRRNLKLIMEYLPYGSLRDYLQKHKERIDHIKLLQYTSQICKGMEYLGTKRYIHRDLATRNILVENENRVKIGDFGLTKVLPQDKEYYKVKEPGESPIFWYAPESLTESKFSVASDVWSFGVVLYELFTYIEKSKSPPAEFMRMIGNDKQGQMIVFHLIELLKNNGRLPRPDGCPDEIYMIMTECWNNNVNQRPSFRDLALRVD
T3 sequence (P52333 822-1111 limits assumed): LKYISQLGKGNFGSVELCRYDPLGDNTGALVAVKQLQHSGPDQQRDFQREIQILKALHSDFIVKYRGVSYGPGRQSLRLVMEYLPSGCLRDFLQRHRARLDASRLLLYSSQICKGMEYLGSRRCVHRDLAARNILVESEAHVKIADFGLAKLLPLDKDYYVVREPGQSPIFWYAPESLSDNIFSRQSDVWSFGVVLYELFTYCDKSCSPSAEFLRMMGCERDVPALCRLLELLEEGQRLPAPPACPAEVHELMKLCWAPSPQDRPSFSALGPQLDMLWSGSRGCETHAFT
T1 sequence (O60674 whole entry, change not shown, the tested form may be a part): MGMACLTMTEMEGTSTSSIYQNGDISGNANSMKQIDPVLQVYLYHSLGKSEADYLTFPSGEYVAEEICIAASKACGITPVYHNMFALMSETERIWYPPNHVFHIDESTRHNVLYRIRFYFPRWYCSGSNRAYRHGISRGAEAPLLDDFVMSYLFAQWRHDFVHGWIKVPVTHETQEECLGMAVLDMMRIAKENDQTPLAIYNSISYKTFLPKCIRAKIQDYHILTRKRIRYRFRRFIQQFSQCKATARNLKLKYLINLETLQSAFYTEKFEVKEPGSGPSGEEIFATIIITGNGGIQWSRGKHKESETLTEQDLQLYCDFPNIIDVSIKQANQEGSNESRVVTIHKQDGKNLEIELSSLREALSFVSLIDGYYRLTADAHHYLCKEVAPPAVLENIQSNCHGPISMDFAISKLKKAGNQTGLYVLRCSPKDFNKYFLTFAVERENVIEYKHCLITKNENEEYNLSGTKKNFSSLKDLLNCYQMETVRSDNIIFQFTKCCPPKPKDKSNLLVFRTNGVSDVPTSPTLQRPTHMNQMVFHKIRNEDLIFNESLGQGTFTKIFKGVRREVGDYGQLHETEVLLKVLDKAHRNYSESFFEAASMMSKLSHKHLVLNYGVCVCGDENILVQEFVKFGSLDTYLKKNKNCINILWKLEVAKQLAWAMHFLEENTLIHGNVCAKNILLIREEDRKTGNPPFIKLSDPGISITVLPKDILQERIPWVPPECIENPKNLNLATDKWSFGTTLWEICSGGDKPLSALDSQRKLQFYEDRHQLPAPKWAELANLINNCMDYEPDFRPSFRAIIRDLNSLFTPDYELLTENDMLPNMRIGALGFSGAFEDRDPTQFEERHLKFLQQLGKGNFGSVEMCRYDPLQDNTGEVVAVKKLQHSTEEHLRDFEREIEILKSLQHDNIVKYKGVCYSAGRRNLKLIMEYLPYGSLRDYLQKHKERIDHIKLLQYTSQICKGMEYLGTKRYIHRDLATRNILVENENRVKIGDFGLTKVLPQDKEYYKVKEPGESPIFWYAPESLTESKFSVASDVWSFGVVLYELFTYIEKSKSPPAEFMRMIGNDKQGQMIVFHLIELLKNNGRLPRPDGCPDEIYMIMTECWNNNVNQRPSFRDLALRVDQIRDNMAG

Row | SMILES | IC50 (BaF3 wild-type cells) [µM] | GI50 [1] [µM] | IC50 (CTLL2) [µM] | IC50 (human JAK2) [µM] | IC50 (human JAK3) [µM]
1 | O=C(Nc1ccc(Sc2ccnc(Nc3ccc(N4CCOCC4)cc3)n2)cc1)C1CC1(F)Cl (stereo not shown) [Compound 378, 2-chloro-2-fluoro-N-(4-(2-(4-morpholinophenylao)pyrimidin-4-ylthio)phenyl)cyclopropanecarboxamide] | < 1 | < 1 | > 20 | > 1 | < 0.5
2 | C=CC(=O)Nc1ccc(Sc2ccnc(Nc3ccc(C(=O)OC)cc3)n2)cc1 [Compound 357, methyl 4-(4-(4-acrylamidophenylthio)pyrimidin-2-ylao)benzoate] |  | < 5 |  | > 1 | < 0.1
3 | Cc1cnc(Nc2ccc(N3CCOCC3)cc2)nc1Sc1ccc(N2C(=O)C=CC2=O)cc1 [Compound 390, 1-(4-(5-methyl-2-(4-morpholinophenylao)pyrimidin-4-ylthio)phenyl)-1H-pyrrole-2,5-dione] | < 5 | < 5 | < 5 | < 0.5 | < 0.1
4 | Cc1cnc(Nc2ccc(N3CCOCC3)cc2)nc1Sc1ccc(N2C(=O)CCC2=O)cc1 [Compound 384, 1-(4-(5-methyl-2-(4-morpholinophenylao)pyrimidin-4-ylthio)phenyl)pyrrolidine-2,5-dione] | > 20 | > 20 | > 20 | < 0.5 | < 0.1
5 | CCOC(=O)c1nccn1Cc1ccc(Sc2ccnc(Nc3ccc(N4CCOCC4)cc3)n2)cc1 [Compound 148, ethyl 1-(4-(2-(4-morpholinophenylao)pyrimidin-4-ylthio)benzyl)-1H-imidazole-2-carboxylate] | < 20 | < 20 | < 20 | > 1 | < 0.5
6 | CSc1nc(Nc2ccc(N3CCOCC3)cc2)ncc1C [Compound 176, 5-methyl-4-(methylthio)-N-(4-morpholinophenyl)pyrimidin-2-ae] | < 5 | < 5 | < 5 | < 1 | < 1
7 | C=CC(=O)Nc1ccc(Sc2nc(Nc3ccc(OC)c(O)c3)ncc2C)cc1 [Compound 283, N-(4-(2-(3-hydroxy-4-methoxyphenylao)-5-methylpyrimidin-4-ylthio)phenyl)acrylamide] | < 20 | < 20 | < 1 | > 1 | < 0.1
8 | CNC(=O)CCC(=O)Nc1ccc(Sc2nc(Nc3ccc(N4CCOCC4)cc3)ncc2C)cc1 [Compound 386, N1-methyl-N4-(4-(5-methyl-2-(4-morpholinophenylao)pyrimidin-4-ylthio)phenyl)succinamide] | > 20 | > 20 | > 20 | > 1 | < 0.5
9 | C=CC(=O)Nc1ccc(Sc2ccnc(Nc3ccc(N4CCS(=O)(=O)CC4)cc3)n2)cc1 [Compound 99, N-{4-[(2-{[4-(1,1-dioxo-1λ^6,4-thiomorpholin-4-yl)phenyl]ao}pyrimidin-4-yl)sulfanyl]phenyl}prop-2-enamide] |  | > 20 |  | > 1 | < 0.1
10 | COc1cc(Nc2nccc(Sc3ccc(NCC#N)cc3)n2)cc(OC)c1OC [Compound 52, 2-(4-(2-(3,4,5-trimethoxyphenylao)pyrimidin-4-ylthio)phenylao)acetonitrile] |  | < 5 |  | > 1 | 
11 | C=CC(=O)Nc1ccc(Sc2nc(Nc3ccccc3O)ncc2C)cc1 [Compound 287, N-(4-(2-(2-hydroxyphenylao)-5-methylpyrimidin-4-ylthio)phenyl)acrylamide] |  | > 20 |  | > 1 | < 0.1
12 | CC(=O)Nc1ccc(Sc2nc(Nc3ccc(N4CCOCC4)cc3)ncc2C)cc1 [Compound 135, N-(4-(5-methyl-2-(4-morpholinophenylao)pyrimidin-4-ylthio)phenyl)acetamide] |  | < 20 |  | > 1 | < 0.5
13 | C=CC(=O)Nc1ccc(Sc2ccnc(Nc3cccc(Cl)c3)n2)cc1 [Compound 348, N-(4-(2-(3-chlorophenylao)pyrimidin-4-ylthio)phenyl)acrylamide] |  | < 5 |  | > 1 | < 0.1
